Reference: US8163709B2, “TAK1-D mediated induction of cell death in human cancer cells by specific sequence short double-stranded RNAS” (Board of Regents of the University of Texas System, priority 2008, dated 2012)
Entries after “also recorded” stand apart in the source; their conditions may differ.

What was measured:
p38 MAPK = p38 MAPK cascade activation in HCC2279 cells (Western blot); format: cell-based, human
Excerpt: A possible application for the above mentioned findings in cancer therapy requires data on the effects of dsRNA mediated activation of Tak1-D in other tumors and in normal tissues. To test whether dsRNA mediated cell killing also occurs in other tumor cell lines, the NSCLC cell line HCC2279 was chosen. This cell line originated from an adenocarcinoma and was initially described by Wistuba et al. (1999).

cdc25A = cdc25A phosphorylation in nuclei of NCI-H460 cells; format: cell-based, human; details: 2 h
Excerpt: (§1) P38 MAPK as well as SPK/JNK have a large number of downstream targets. Amongst these, the phosphorylation of the cell cycle control phosphatase cdc25 (Bulavin et al., 2001; Goss et al., 2003) are of particular interest, as these phosphorylations have the potential to transduce an immediate and direct effect of TAK1-D activation to the cell cycle. […] In contrast, both cdc25A and cdc25B were found in the nucleus and therefore capable of cell cycle control. […] The occurrence of this shifted form of cdc25A is indicative of phosphorylation and inactivation of cdc25A (Zhao et al., 2002). The amount of cdc25B in the nucleus decreases with kinetics similar to the phosphorylation of cdc25A, indicative for a phosphorylation dependent translocation and proteolytic digestion of cdc25B (Cans et al., 1999). Therefore, it can be concluded that activation of TAK1-D in NCI-H460 cells leads to an inactivation of cdc25A and cdc25B through p38 MAPK and SAPK/JNK mediated phosphorylation and proteolytic destruction.

cdc25B = test: Nuclear cdc25B level in NCI-H460 cells; format: cell-based, human
Excerpt: as §1

H460 cells = test: Apoptosis in H460 cells (caspase 3 cleavage, PARP cleavage, nuclear morphology); format: cell-based, human
Excerpt: Cell cycle arrest triggers programmed cell death in many tumor cell lines.
As cell cycle arrest is incompatible with survival in many tumor cell lines the cellular response of H460 cells to the treatment with dsRNA si5 was investigated.
Survival assay and apoptosis scoring.

TAK1-D = target: T1, TAK1-D (Homo sapiens, UniProt O43318); test: Subcellular localization of TAK1-D in H460 cells (fractionation, immunofluorescence); format: cell-based; design: endogenous in cells; host or cells: NCI-H460
T1 sequence (O43318 1-491 isoform O43318-4): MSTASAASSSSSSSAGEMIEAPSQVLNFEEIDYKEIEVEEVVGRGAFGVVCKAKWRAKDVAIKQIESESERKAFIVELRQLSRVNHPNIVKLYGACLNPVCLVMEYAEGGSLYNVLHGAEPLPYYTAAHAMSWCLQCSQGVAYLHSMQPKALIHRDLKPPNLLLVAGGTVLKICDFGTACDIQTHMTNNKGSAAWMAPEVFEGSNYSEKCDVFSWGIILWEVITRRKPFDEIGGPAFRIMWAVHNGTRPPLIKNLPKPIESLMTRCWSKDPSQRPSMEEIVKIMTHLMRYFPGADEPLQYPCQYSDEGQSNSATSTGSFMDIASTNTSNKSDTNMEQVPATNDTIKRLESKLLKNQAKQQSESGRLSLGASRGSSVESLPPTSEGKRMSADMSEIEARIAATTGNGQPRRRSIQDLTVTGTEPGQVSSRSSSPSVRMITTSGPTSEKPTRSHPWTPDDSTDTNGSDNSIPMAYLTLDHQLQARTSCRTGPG
Procedure: Subcellular fractionation. About […] H460 cells growing in a 10 cm dish were transfected with 20 nM dsRNA si5 or si6. […] A crude nuclear pellet (P.7) was obtained by centrifugation at 700 g and 4° C. for 5 minutes. The supernatant was centrifuged at 10,000 g and 4° C. for 30 minutes producing the P10 pellet and finally separated by ultracentrifugation (Sorvall 90SE ultracentrifuge and Sorvall AH-629 rotor) at 150,000 g and 4° C. for 1 hour into pellet (P150) and supernatant (S150). Proteins from the S150 fraction were concentrated by precipitation with 10% trichloroacetic acid (TCA). All pellets were dissolved in SDS sample buffer.
Immunofluorescence. H460 cells stably expressing TAK1-D fused on its c-terminus to a FLAG tag were generated as described above for the K36W mutant. Cells were transfected with 20 nM si5 or si6 and fixed in 4% formaldehyde 6 h later. After 15 min of fixation at room temperature cells were washed 3 times in PBS and permeabilized in methanol at −20° C. for 10 min. After one wash in PBS slides were blocked for 1 hour at room temperature in PBS containing 1% BSA. […] After three 5 min washes in PBS cells were visualized by fluorescence microscopy. […]

[1] = system: normal human skin fibroblasts; test: Crystal Violet staining of normal human skin fibroblasts; format: cell-based; details: up to 20 nM, 48 h
Procedure: In order to obtain preliminary data describing the response of normal tissue cells to dsRNA mediated Tak1-D activation normal human fibroblasts as well as human bronchial epithelial cells (HBEC) were plated into 12-well multiwell plates, treated with siRNA si5 or si6 in different concentrations and stained with Crystal Violet 48 h later. […] […].

## si5: 21-mer siRNA against TLK1 mRNA: GGCUUUUGACCUUUAUGAAtt (SEQ ID NO: 2) / ttCCGAAAACUGGAAAUACUU (SEQ ID NO: 3) (sense GGCUUUUGACCUUUAUGAATT; antisense TTCCGAAAACUGGAAAUACUU; chemistry not given here; one strand is listed 3' to 5')
p38 MAPK
  activation of p38 MAPK: activate p38 MAPK
cdc25A
  phosphorylation of nuclear cdc25A (intensity of the upper band): increases in intensity within 2 h; also recorded: increased phosphorylation as early as 2 h
cdc25B
  amount of cdc25B in the nucleus: decreases
H460 cells; H460, adenoviral K63W, 48 h after siRNA
  cellular apoptotic response with inactivated Tak1-D catalytic activity: significantly reduced
H460 cells; H460 cells, 48 h
  nuclear morphology, HOECHST 33342 staining: typical apoptotic chromatin condensation and fragmentation
H460 cells; H460 cells, Western blot
  time until PARP cleavage: ≤ 24 h
H460 cells; NCI-H460, 24 h after treatment
  caspase 3 cleavage: cells from the G1 and the S phase of the cell cycle show caspase 3 cleavage
H460 cells; NCI-H460, 48 h, compared with 24 h
  fraction of G1 and S phase cells staining positive for cleaved caspase 3: higher
TAK1-D; H460, 20 nM, 6 h, immunofluorescence
  colocalization of FLAG-TAK1-D and ribosomes (S6): increased colocalization
TAK1-D; H460, 4 h, compared to control si6
  amount of TAK1-D in the 150,000 g pellet: increased
[1]
  growth inhibitory or cytotoxic effect: no growth inhibitory or cytotoxic effect could be observed; also recorded: no cytotoxicity or growth delay
